# In paper PMC5988308, “Rhodanine derivatives as potent anti-HIV and anti-HSV microbicides” (PLoS ONE, 2018):
# Like-named read-outs stand apart in the source and are kept apart here.
# Key:
# [1] = tested on: HSV-2 acyclovir resistant; experiment: HSV-2 acyclovir resistant plaque reduction assay on Vero cells; format: cell-based; settings: Human alphaherpesvirus 2, Vero, read-out: HSV-2 acyclovir resistant EC50
# Description: (§1) Clinical isolates of HSV-1 and HSV-2 were kindly provided by Prof. M. Pistello, University of Pisa, Italy. HSV-1 and HSV-2 strains were propagated and titrated by plaque assay on Vero cells. A HSV-2 strain with phenotypic resistance to acyclovir was generated by serial passage in the presence of increasing concentrations of acyclovir, as previously described.
# The effect of the rhodanine derivatives on HSV infection was evaluated by plaque reduction assay. Vero cells were pre-plated 24 h in advance in 24-well plates at a density of […]. Increasing concentrations of compounds were mixed with HSV-2 (MOI 0.001 pfu/cell) or HSV-2 acyclovir resistant (MOI 0.001) or HSV-1 (MOI 0.0005) or and incubated for 1 hour at 37°C. The mixtures were subsequently added to the cells, which were then incubated at 37°C for 2 h. […] After further incubation at 37°C for 24 h (HSV-2 and HSV-2 R Acy) or 48 h (HSV-1), cells were fixed and stained with 0.1% crystal violet in 20% ethanol and viral plaques counted. […] The selectivity index (SI) was calculated by dividing the CC50 by the EC50 value.
# All results are presented as the mean values from three independent experiments. The EC50 values for inhibition curves were calculated by regression analysis using the software GraphPad Prism (GraphPad Software, San Diego, California, U.S.A.) by fitting a variable slope-sigmoidal dose–response curve. […]
# [2] = Vero cell viability (MTS assay); format: cell-based; settings: African green monkey
# Description: African green monkey fibroblastoid kidney cells (Vero, ATCC CCL-81) were grown as monolayers in Eagle's minimal essential medium (MEM) (Gibco/BRL, Gaithersburg, MD) supplemented with 10% heat inactivated fetal calf serum (FCS) and 1% antibiotic-antimycotic solution (Zell Shield, Minerva Biolabs GmbH, Berlin, Germany).
# Cell viability was measured using the MTS [3-(4,5-dimethylthiazol-2-yl)-5-(3-carboxymethoxyphenyl)-2-(4-sulfophenyl)-2H-tetrazolium] assay. Cell cultures were seeded in 96-well plates were incubated with different concentrations of compounds in triplicate under the same experimental conditions described for the antiviral assays. Cell viability was determined using the CellTiter 96 Proliferation Assay Kit (Promega, Madison, WI, USA) according to the manufacturer's instructions. Absorbances were measured using a Microplate Reader (Model 680, BIORAD) at 490 nm. The effect on cell viability at different concentrations of the compound was expressed as a percentage, by comparing absorbances of treated cells with those of cells incubated with culture medium and equal volumes of vehicle.
# HSV-1 = HSV-1 plaque reduction assay on Vero cells; format: cell-based; settings: Human alphaherpesvirus 1, Vero cells, read-out: HSV-1 EC50
# Description: as §1
# (§2) The effect of the rhodanine derivatives on HSV infection was evaluated by plaque reduction assay. Vero cells were pre-plated 24 h in advance in 24-well plates at a density of […]. Increasing concentrations of compounds were mixed with HSV-2 (MOI 0.001 pfu/cell) or HSV-2 acyclovir resistant (MOI 0.001) or HSV-1 (MOI 0.0005) or and incubated for 1 hour at 37°C. The mixtures were subsequently added to the cells, which were then incubated at 37°C for 2 h. The virus inoculum was then removed and the cells washed and overlaid with a medium containing 1.2% methylcellulose (Sigma). After further incubation at 37°C for 24 h (HSV-2 and HSV-2 R Acy) or 48 h (HSV-1), cells were fixed and stained with 0.1% crystal violet in 20% ethanol and viral plaques counted. The effective concentration producing 50% reduction (EC50) and 90% reduction (EC90) in plaque formation was determined using Prism software by comparing drug-treated with wells treated with medium and solvent. The selectivity index (SI) was calculated by dividing the CC50 by the EC50 value.
# (§3) All results are presented as the mean values from three independent experiments. The EC50 values for inhibition curves were calculated by regression analysis using the software GraphPad Prism (GraphPad Software, San Diego, California, U.S.A.) by fitting a variable slope-sigmoidal dose–response curve. Acyclovir was purchased from Sigma Aldrich (Milan, Italy).
# HSV-2 = HSV-2 plaque reduction assay on Vero cells; format: cell-based; settings: Vero cells
# Description: as §1, §2, §3
# HIV-1 AD8 [3] = experiment: Inhibition of antiviral activity by purified bovine serum albumin (TZM-bl, AD8); format: cell-based
# Description: To confirm the binding of compound 2 to serum albumin, infection was performed in presence of different concentrations of purified bovine serum albumin (BSA, Sigma Aldrich) starting from the concentration that is usually present in FBS serum (35 mg/mL, 1X) and increasing to a five-fold concentration (175 mg/mL) up to a ten-fold concentration (350 mg/mL). […] After one hour, the mixture was added to 40.000 TZM-bl cells/well plated in DMEM supplemented with 50 μg/mL penicillin, 50 μg/mL streptomycin, 30 μg/mL DEAE-dextran and 10% FBS in a 96-well plate. After two days the infection was evaluated through a CPRG assay.
# [4] = tested on: HIV-1 AD8 (CCR5-tropic strain); experiment: Antiviral activity on TZM-bl cells infected with HIV-1 AD8 (CPRG assay); format: cell-based; settings: for alteration of antiviral activity when pre-incubated with serum: HIV-1 laboratory strains
# Description: (§4) The human TZM-bl indicator cell line (obtained from the NIH AIDS reagents program, cat. Nr 8129 (www.aidsreagent.org) and maintained at 37°C and 5% CO2 in Dulbecco’s modified Eagle’s medium (DMEM) medium containing 10% fetal bovine serum, 50 μg/mL penicillin, and 50 μg/mL streptomycin. The HIV-1 laboratory strains NL(AD8) (NIH AIDS reagents program, cat.nr 11346), NL4.3 (NIH AIDS reagents program, cat. Nr. 114) were titrated as previously reported. Briefly, serial 5-fold dilutions of each virus were made in quadruplicate wells in 96-well culture plates, in a total volume of 100 μL of growth medium (DMEM), for a total of 8 dilution steps. Freshly trypsinized cells (20,000 cells in 100 μL of growth medium containing 75 μg/mL DEAE-dextran) were added to each well, and the plates were incubated at 37°C in a humidified 5% CO2-95% air environment. After 48 h of incubation, the medium was removed and viral infection was quantified using a β-galactosidase (CPRG) assay (Roche). Twenty thousand TZM-bl cells/well were seeded in 96-well plates in complete DMEM supplemented with 30 μg/mL DEAE-dextran (Sigma-Aldrich). Three hundred times the 50% tissue culture infective dose (TCID50)/mL of each strain was pretreated for 1 h at 37°C with six serial dilutions ([…] to 3.2 nM) of each compound and then added to the cells, as previously described. Vehicle (0.1% dimethyl sulfoxide [DMSO])-treated cells served as a negative control. […] After 2 days, viral infection was quantified using a CPRG assay (Roche). The inhibitory curves were fitted by nonlinear regression, allowing for the calculation of the 50% inhibitory concentration (IC50) using the Prism software. To evaluate the cell toxicity of the compounds, the metabolic XTT [2,3-bis-(2-methoxy-4-nitro-5-sulfophenyl)-2H-tetrazolium-5-carboxanilide] test (Sigma-Aldrich) was performed according to the manufacturer’s instructions.
# [5] = tested on: HIV-1 NL4.3 (CXCR4-tropic strain); experiment: Antiviral activity on TZM-bl cells infected with HIV-1 NL4.3 (CPRG assay); format: cell-based
# Description: After 48 h of incubation, the medium was removed and viral infection was quantified using a β-galactosidase (CPRG) assay (Roche). Twenty thousand TZM-bl cells/well were seeded in 96-well plates in complete DMEM supplemented with 30 μg/mL DEAE-dextran (Sigma-Aldrich). […] Vehicle (0.1% dimethyl sulfoxide [DMSO])-treated cells served as a negative control. […] After 2 days, viral infection was quantified using a CPRG assay (Roche). […] To evaluate the cell toxicity of the compounds, the metabolic XTT [2,3-bis-(2-methoxy-4-nitro-5-sulfophenyl)-2H-tetrazolium-5-carboxanilide] test (Sigma-Aldrich) was performed according to the manufacturer’s instructions.
# HIV-1 AD8 [6] = experiment: Inhibition of antiviral activity by fetal bovine serum (TZM-bl, AD8); format: cell-based; settings: FBS 0% to 10%
# Description: To evaluate the binding of compounds to plasma proteins also in a cell based assay, the infection with the HIV laboratory strain AD8 was performed in absence or in presence of different concentrations of Fetal Bovine Serum (FBS): 2%, 5% and 10%. The representative compound 2 was pre-incubated at different concentrations ranging from 10 μM to 3.2 nM with 300 TCID50 /mL of AD8 in DMEM supplemented with 50 μg/mL penicillin, 50 μg/mL streptomycin, 30 μg/mL DEAE-dextran and FBS at the concentration described above. Maraviroc was used as control. After an hour the mixture was added to 40.000 TZM-bl cells/well plated in a 96-well plate and after two days the infection was quantified using a CPRG assay (Roche) as previously described.
# [7] = tested on: recombinant HIV-1 integrase Q148H, G140S; experiment: Antiviral activity on human CD4+ T lymphocytes, integrase mutant Q148H, G140S; format: cell-based; settings: Human immunodeficiency virus 1, read-out: Q148H, G140S EC50
# HIV-1 AD8 WT = experiment: Antiviral activity on human CD4+ T lymphocytes, AD8 WT; format: cell-based; settings: Human immunodeficiency virus 1, read-out: AD8 WT EC50
# Description: (§5) The antiviral activity and cytotoxicity of compounds 2, 9e and 9f was tested also on freshly purified human CD4^+ T lymphocytes obtained from healthy blood donors (informed consent available) as described previously on HIV laboratory strain NL4.3 and AD8 [33, 34].
# HIV-1 NL 4.3 WT = experiment: Antiviral activity on human CD4+ T lymphocytes, NL4.3 WT; format: cell-based; settings: Human immunodeficiency virus 1, read-out: NL 4.3 WT EC50
# Description: as §5
# [8] = Cytotoxicity on TZM-bl cells (XTT test); format: cell-based; settings: human, read-out: Citotoxicity (TZM-bl cells) CC50
# Description: as §4
# [9] = tested on: recombinant HIV-1 integrase Y143R; experiment: Antiviral activity on human CD4+ T lymphocytes, integrase mutant Y143R; format: cell-based; settings: Human immunodeficiency virus 1, read-out: Y143R EC50
# NL4.3 HIV strain = experiment: Antiviral activity in microbicide gel formulation, transwell experiment, TZM-bl cells; format: cell-based, HIV-1; settings: Human immunodeficiency virus 1, gel at 50%
# Description: All the semi-solid formulations were prepared adding at the pre-gel solution reported above hydroxyethyl cellulose (HEC) (1.8% w/v). In all samples, 0.2% v/v propionic acid was added to aqueous solution in order to preserve form bacteria and mold contamination. HEC was dispersed in the pre-gel solution at 25°C under magnetic stirring, overnight.
# Antiviral activity of compound 2 on NL4.3 HIV strain was evaluated also in a gel formulation. To reproduce more physiological conditions, TZM-bl cells were seeded into transwells and the gel was applied onto the cell monolayer at 50% fixed concentration with serial drug dilutions as previously described. Briefly, 4x10^4 TZM-bl cells were plated into each transwell apical chamber of a 24-well plate (pore size 3μm and diameter 6,5 mm, Corning) containing medium in the bottom plate and cultured overnight. For efficacy testing, 60 TCID50 of virus was added to each apical well in the presence of 100 μL of compound 2 gel, tenofovir gel or blank gel at the final drug concentrations of 25μM, 10 μM and 5 μM. Inhibition of infection was determined as previously based on deviations from blank gel.
# HSA = settings: cited from earlier work
molecule,measurement,setting,value
"Nc1nc2c(ncn2COCCO)c(=O)[nH]1 [ACV, Acyclovir, reference compound]",EC50,[1],31.9 ± 1.16 µM
same,CC50,[2]; Citotoxicity (Vero cells) CC50,732 ± 46.2 µM
same,CC50,[2]; Vero cell CC50 (HSV-1),698 ± 72.5 µM
same,CC50,[2]; Vero cell CC50 (HSV-2 acyclovir resistant rows),732 ± 46.2 µM
same,EC50,HSV-1,0.168 ± 0.0413 µM
same,EC50,"HSV-2; Human alphaherpesvirus 2, plaque reduction, compound pre-incubated with virus 1 h at 37°C, read-out: HSV-2 EC50",0.622 ± 0.0211 µM
same,"SI (CC50/EC50), HSV-2",HSV-2,1177
maraviroc [reference compound],"influence of BSA on antiviral activity, any concentration of BSA",HIV-1 AD8 [3],not influenced
same,alteration of antiviral activity when pre-incubated with serum,[4]; TZM-bl cells,did not show any alteration of antiviral activity
same,EC50,"[4]; TZM-bl cells, pre-incubation in complete medium containing fetal bovine serum (FBS), read-out: AD8 EC50 a",0.0255 ± 0.003 µM
same,EC50,"[4]; TZM-bl cells, pre-incubation with virus without serum, read-out: AD8 EC50",0.0367 ± 0.007 µM
same,EC50,"[5]; TZM-bl cells, pre-incubation in complete medium containing fetal bovine serum (FBS), read-out: NL4-3 EC50 a",> 20 µM
same,EC50,"[5]; TZM-bl cells, pre-incubation with virus without serum, read-out: NL4-3 EC50",> 20 µM
same,effect of FBS concentration on antiviral activity,HIV-1 AD8 [6],did not change
"Cc1nnc(C(=O)NC(C)(C)c2nc(C(=O)NCc3ccc(F)cc3)c(O)c(=O)n2C)o1 [RAL, raltegravir, reference compound]",EC50,[7],0.8 ± 0.012 µM
same,EC50,HIV-1 AD8 WT,0.002 ± 0.003 µM
same,EC50,"[4]; Human immunodeficiency virus 1, TZM-bl, read-out: AD8 EC50",0.0065 ± 0.001 µM
same,EC50,"[4]; Human immunodeficiency virus 1, TZM-bl, read-out: AD8 EC50 a",0.0135 ± 0.002 µM
same,alteration of antiviral activity when pre-incubated with serum,[4]; TZM-bl cells,did not show any alteration of antiviral activity
same,EC50,HIV-1 NL 4.3 WT,0.003 ± 0.002 µM
same,EC50,"[5]; Human immunodeficiency virus 1, NL43, TZM-bl, read-out: NL4-3 EC50",0.021 ± 0.003 µM
same,CC50,[8],> 20 µM
same,EC50,[9],0.46 ± 0.01 µM
"C[C@H](Cn1cnc2c(N)ncnc21)OCP(=O)(O)O [tenofovir, reference compound]",EC50,NL4.3 HIV strain,4.5 µM
CC(=O)Nc1ccc(O)cc1 [Paracetamol],Kd,HSA,1280 ± 690 µM
